Series [1] in a line: Metabolic stability in (human) liver microsomes. The settings on record: pH 7.4. (In general: Microsomes from liver hold many membrane-bound enzymes, among them those of drug oxidation.)
Another series has as its target Human GLP-1R (Homo sapiens, UniProt P43220). Description: GLP-1R agonist activity, HTRF cAMP detection in 293A GFP-GLP-1R cells. Set-up: Emax: dose or concentration left out as unconfirmed. To be noted: for Emax: 293A.
[2] abbreviates: cAMP level, 293A GFP-GLP-1R cells, 30 min incubation, geometric mean.

Read-outs that look alike come from different tables or passages of the source.

Chain of Human GLP-1R (P43220 24-463): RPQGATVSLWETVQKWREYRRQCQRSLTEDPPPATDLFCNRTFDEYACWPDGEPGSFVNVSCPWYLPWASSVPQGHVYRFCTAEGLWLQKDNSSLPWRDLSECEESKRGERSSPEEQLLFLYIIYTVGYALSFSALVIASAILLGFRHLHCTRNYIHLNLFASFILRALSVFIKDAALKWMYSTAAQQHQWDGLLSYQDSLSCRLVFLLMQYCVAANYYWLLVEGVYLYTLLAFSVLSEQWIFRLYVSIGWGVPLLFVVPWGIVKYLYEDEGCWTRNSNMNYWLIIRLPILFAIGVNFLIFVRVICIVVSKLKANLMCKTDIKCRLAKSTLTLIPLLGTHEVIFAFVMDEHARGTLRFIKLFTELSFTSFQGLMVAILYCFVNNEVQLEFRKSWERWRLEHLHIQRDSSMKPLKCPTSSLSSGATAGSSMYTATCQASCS
Description for Human GLP-1R: GLP-1R-mediated agonist activity was determined by cell-based assays using a homogeneous time-resolved fluorescence (i.e., HTRF)-based cAMP detection kit, which measures the level of cAMP in cells. The method was a competitive immunoassay. It enabled direct pharmacological characterization of compounds acting on Gs-coupled receptors in adherent or suspending cells.
The standard curve of native cAMP or unlabeled cAMP produced by cells competed with d2-labeled cAMP red receptors to bind monoclonal anti-cAMP Eu3+ cryptate donors, and the specific signal was inversely proportional to the concentration of cAMP in standard or tested samples.
Human GLP-1R encoding sequence (NCBI reference sequence NP_002053.3) was subcloned into pEGFP-N1 (tsingke), and the cell line stably expressing the receptor was isolated. The expression density of GLP-1R was confirmed by the expression of GFP observed under a fluorescence microscope.
Cells were collected from a T25 tissue culture flask and centrifuged at room temperature at 1000 rpm for 5 minutes. The cell precipitates were then re-suspended in 1 mL of the stimulating buffer. 20 μL sample of cell suspension was counted on a counter STAR IC 1000 to determine the cell viability and the cell count per mL. The remaining cell suspension was then regulated with the stimulating buffer to deliver 2000 living cells per well using a multi-channel pipette. 5 μL of the cell suspension was added to each well of the plate which already contained the compound. The plate was sealed and incubated at 37° C. with 5% CO2 for 30 minutes.
After 30 minutes of incubation, 5 μL of d2-labeled cAMP and 5 μL of anti-cAMP cryptate (both 1: 20 diluted in the cell lysis buffer) were added to each well of the plate. The plate was then incubated at room temperature for 60 minutes, and the changes of HTRF signal were read with Tecan Spark reader: absorbance values at 340 nm (excitation)/at 615 nm and 665 nm (emission). Raw data were converted into nM cAMP by interpolation from the cAMP standard curve, and the effect in percentage was determined relative to the saturated concentration of the complete agonist GLP-17˜37 (400 nM) contained in each plate. Determination of EC50 was performed based on the agonist dose-response curve, which was analyzed using a four-parameter logical dose-response equation with a curve fitting program.
The test data presented the results in the form of a geometric mean (EC50s) based on the number of repetition times.

For the compound `CCC(=O)c1ccc(COc2cccc(C3=CCN(Cc4nc5ccc(C(=O)O)cc5n4C[C@@H]4CCO4)CC3)n2)c(F)c1` [Compound 25, (S)-2-((6-((2-fluoro-4-propionylbenzyl)oxy)-3′,6′-dihydro-[2,4′-bipyridin]-1′(2′H)-yl)methyl)-1-(oxetan-2-ylmethyl)-1H-benzo[d]imidazole-6-carboxylic acid], the half-life (in general, the time needed for the level to fall by half in the phase considered) at 1 μM in series [1] worked out at 25.5 min. Moreover, on Human GLP-1R, the midpoint of the response, the EC50, lay at 0.95 nM and the Emax – broadly, the greatest response seen or fitted, relative to the assay's reference – was determined as 100%.
In turn, `CC(=O)c1ccc(COc2cccc(C3=CCN(Cc4nc5ccc(C(=O)O)cc5n4C[C@@H]4CCO4)CC3)n2)c(F)c1` [Compound 34, (S)-2-((6-((4-acetyl-2-fluorobenzyl)oxy)-3′,6′-dihydro-[2,4′-bipyridin]-1′(2′H)-yl)methyl)-1-(oxetan-2-ylmethyl)-1H-benzo[d]imidazole-6-carboxylic acid] displayed a half-life at 1 μM in series [1] of 14.2 min. Also, on Human GLP-1R, a half-maximal effect (EC50) was put at 0.7 nM and the Emax was determined as 81.5%.
For `COc1cc(COc2cccc(C3CCN(Cc4nc5ccc(C(=O)O)cc5n4C[C@@H]4CCO4)CC3)n2)c(F)cc1C(=O)C1CC1` [Compound 37, (S)-2-((4-(6-((4-(cyclopropanecarbonyl)-2-fluoro-5-methoxybenzyl)oxy)pyridin-2-yl)piperidin-1-yl)methyl)-1-(oxetan-2-ylmethyl)-1H-benzo[d]imidazole-6-carboxylic acid], on Human GLP-1R, the EC50 (commonly the concentration needed to bring the measured effect to its halfway point) is 228 nM and the Emax was determined as 68.5%.
Take `N#CCC1(Cn2c(CN3CCC(c4cccc(OCc5ccc(C(=O)C6CC6)cc5F)n4)CC3)nc3ccc(C(=O)O)cc32)CC1` [Compound 45]: on Human GLP-1R, a half-maximal response (EC50) required 0.013 nM.
Turning to `O=C(O)c1ccc2nc(CN3CCC(c4cccc(OCc5ccc(C(=O)C6CCOCC6)cc5F)n4)CC3)n(C[C@@H]3CCO3)c2c1` [Compound 19, (S)-2-((4-(6-((2-fluoro-4-(tetrahydro-2H-pyran-4-carbonyl)benzyl)oxy)pyridin-2-yl)piperidin-1-yl)methyl)-1-(oxetan-2-ylmethyl)-1H-benzo[d]imidazole-6-carboxylic acid], the Emax on Human GLP-1R was 129%. At Human GLP-1R (setting [2]), this compound gave an EC50 of 145 nM.
`Cc1cc(COc2cccc(C3CCN(Cc4nc5ccc(C(=O)O)cc5n4C[C@@H]4CCO4)CC3)n2)c(F)cc1C(=O)C1CC1` [Compound 38, (S)-2-((4-(6-((4-(cyclopropanecarbonyl)-2-fluoro-5-methylbenzyl)oxy)pyridin-2-yl)piperidin-1-yl)methyl)-1-(oxetan-2-ylmethyl)-1H-benzo[d]imidazole-6-carboxylic acid]: at Human GLP-1R, the concentration for a half-maximal effect (EC50) is more than 1000 nM and the Emax came to 85.9%.
As for `NC(=O)c1ccc(COc2cccc(C3CCN(Cc4nc5ccc(C(=O)O)cc5n4C[C@@H]4CCO4)CC3)n2)c(F)c1` [Compound 3, (S)-2-((4-(6-((4-carbamoyl-2-fluorobenzyl)oxy)pyridin-2-yl)piperidin-1-yl)methyl)-1-(oxetan-2-ylmethyl)-1H-benzo[d]imidazole-6-carboxylic acid], the Emax on Human GLP-1R was determined as 54.5%. Also, the response at Human GLP-1R (setting [2]) was half-maximal at 75.9 nM (EC50).
Taken in the same sequence, the figures for `O=C(O)c1ccc2nc(CN3CCC(c4cccc(OCc5ccc(C(=O)c6cccnc6)cc5F)n4)CC3)n(C[C@@H]3CCO3)c2c1` [Compound 8, (S)-2-((4-(6-((2-fluoro-4-nicotinoylbenzyl)oxy)pyridin-2-yl)piperidin-1-yl)methyl)-1-(oxetan-2-ylmethyl)-1H-benzo[d]imidazole-6-carboxylic acid] were 88% and 23.7 nM.
On Human GLP-1R, `COc1cc(C(=O)C2CC2)cc(F)c1COc1cccc(C2CCN(Cc3nc4ccc(C(=O)O)cc4n3C[C@@H]3CCO3)CC2)n1` [Compound 36, (S)-2-((4-(6-((4-(cyclopropanecarbonyl)-2-fluoro-6-methoxybenzyl)oxy)pyridin-2-yl)piperidin-1-yl)methyl)-1-(oxetan-2-ylmethyl)-1H-benzo[d]imidazole-6-carboxylic acid] had a half-maximal effective concentration (EC50) of 20.4 nM and an Emax of 84.9%.
As for `O=C(O)c1ccc2nc(CN3CCC(c4cccc(OCc5ccc(C(=O)C6CC6)cc5F)n4)CC3)n(CC3(CF)CC3)c2c1` [Compound 47], the EC50 at Human GLP-1R was determined as 0.01 nM.
For the compound `O=C(O)c1ccc2nc(CN3CCC(c4cccc(OCc5ccc(C(=O)C6CC6)cc5F)n4)CC3)n(C[C@@H]3CCO3)c2n1` [Compound 33, (S)-2-((4-(6-((4-(cyclopropanecarbonyl)-2-fluorobenzyl)oxy)pyridin-2-yl)piperidin-1-yl)methyl)-3-(oxetan-2-ylmethyl)-3H-imidazo[4,5-b]pyridine-5-carboxylic acid], on Human GLP-1R, a half-maximal effect (EC50) was put at 1.59 nM and the Emax is 92.9%.
Taken in the same sequence, the figures for `CC(=O)c1ccc(COc2cccc(C3CCN(Cc4nc5ccc(C(=O)O)cc5n4C[C@@H]4CCO4)CC3)n2)c(OC(F)(F)F)c1` [Compound 21, (S)-2-((4-(6-((4-acetyl-2-(trifluoromethoxy)benzyl)oxy)pyridin-2-yl)piperidin-1-yl)methyl)-1-(oxetan-2-ylmethyl)-1H-benzo[d]imidazole-6-carboxylic acid] were 95.3 nM and 91.8%.
Taken in the same sequence, the figures for `CC(=O)c1cccc(COc2cccc(C3CCN(Cc4nc5ccc(C(=O)O)cc5n4C[C@@H]4CCO4)CC3)n2)c1F` [Compound 17, (S)-2-((4-(6-((3-acetyl-2-fluorobenzyl)oxy)-pyridin-2-yl)piperidin-1-yl)methyl)-1-(oxetan-2-ylmethyl)-1H-benzo[d]imidazole-6-carboxylic acid] were 7.68 nM and 104%.
For `Cc1cc(C(=O)C2CC2)ccc1COc1cccc(C2CCN(Cc3nc4ccc(C(=O)O)nc4n3C[C@@H]3CCO3)CC2)n1` [Compound 40, (S)-2-((4-(6-((4-(cyclopropanecarbonyl)-2-methylbenzyl)oxy)pyridin-2-yl)piperidin-1-yl)methyl)-3-(oxetan-2-ylmethyl)-3H-imidazo[4,5-b]pyridine-5-carboxylic acid], in that order: 0.07 nM and 94.7%.
For `CC(=O)c1ccc(COc2cccc(C3CCN(Cc4nc5ccc(C(=O)O)cc5n4C[C@@H]4CCO4)CC3)n2)c(C(F)(F)F)c1` [Compound 11, (S)-2-((4-(6-((4-acetyl-2-(trifluoromethyl)benzyl)oxy)pyridin-2-yl)piperidin-1-yl)methyl)-1-(oxetan-2-ylmethyl)-1H-benzo[d]imidazole-6-carboxylic acid], at Human GLP-1R, a half-maximal response (EC50) required 42.5 nM and the Emax came out at 85.5%.
Taken in the same sequence, the figures for `CCOc1cc(C(C)=O)ccc1COc1cccc(C2CCN(Cc3nc4ccc(C(=O)O)cc4n3C[C@@H]3CCO3)CC2)n1` [Compound 30, (S)-2-((4-(6-((4-acetyl-2-ethoxybenzyl)oxy)pyridin-2-yl)piperidin-1-yl)methyl)-1-(oxetan-2-ylmethyl)-1H-benzo[d]imidazole-6-carboxylic acid] were 0.91 nM and 112%.
Taken in the same sequence, the figures for `C[C@H]1CN(c2cccc(OCc3ccc(C(=O)C4CC4)cc3F)n2)CCN1Cc1nc2ccc(C(=O)O)cc2n1C[C@@H]1CCO1` [Compound 39, 2-(((S)-4-(6-((4-(cyclopropanecarbonyl)-2-fluorobenzyl)oxy)pyridin-2-yl)-2-methylpiperazin-1-yl)methyl)-1-(((S)-oxetan-2-yl)methyl)-1H-benzo[d]imidazole-6-carboxylic acid] were 3.38 nM and 87.9%.
Taken in the same sequence, the figures for `CC(=O)c1ccc(F)c(COc2cccc(C3CCN(Cc4nc5ccc(C(=O)O)cc5n4C[C@@H]4CCO4)CC3)n2)c1` [Compound 14, (S)-2-((4-(6-((5-acetyl-2-fluorobenzyl)oxy)pyridin-2-yl)piperidin-1-yl)methyl)-1-(oxetan-2-ylmethyl)-1H-benzo[d]imidazole-6-carboxylic acid] were 705 nM and 109%.
At Human GLP-1R, `CC(=O)c1ccc(COc2cccc(C3CCN(Cc4nc5ccc(C(=O)O)cc5n4C[C@@H]4CCO4)CC3)n2)cc1` [Compound 16, (S)-2-((4-(6-((4-acetylbenzyl)oxy)pyridin-2-yl)piperidin-1-yl)methyl)-1-(oxetan-2-ylmethyl)-1H-benzo[d]imidazole-6-carboxylic acid] registered an EC50 of 7.19 nM and an Emax of 88.2%.
In the case of `CC(=O)c1ccc(COc2cccc(C3CCN(Cc4nc5ccc(C(=O)O)cc5n4C[C@@H]4CCO4)CC3)n2)c(OC2CC2)c1` [Compound 31, (S)-2-((4-(6-((4-acetyl-2-cyclopropoxybenzyl)oxy)pyridin-2-yl)piperidin-1-yl)methyl)-1-(oxetan-2-ylmethyl)-1H-benzo[d]imidazole-6-carboxylic acid], at Human GLP-1R, the response was half-maximal at 18.5 nM (EC50) and the Emax was determined as 75.4%.
With `CC(=O)c1ccc(COc2cccc(C3CCN(Cc4nc5ccc(C(=O)O)nc5n4C[C@@H]4CCO4)CC3)n2)c(F)c1` [Compound 5, (S)-2-((4-(6-((4-acetyl-2-fluorobenzyl)oxy)pyridin-2-yl)piperidin-1-yl)methyl)-3-(oxetan-2-ylmethyl)-3H-imidazo[4,5-b]pyridine-5-carboxylic acid], on Human GLP-1R, the response was half-maximal at 0.54 nM (EC50) and the maximal response (Emax) worked out at 81.3%.
Taken in the same sequence, the figures for `CC(=O)c1ccc(COc2cccc(C3CCN(Cc4nc5ccc(C(=O)O)cc5n4C[C@@H]4CCO4)CC3)n2)cc1F` [Compound 26, (S)-2-((4-(6-((4-acetyl-3-fluorobenzyl)oxy)pyridin-2-yl)piperidin-1-yl)methyl)-1-(oxetan-2-ylmethyl)-1H-benzo[d]imidazole-6-carboxylic acid] were 4.57 nM and 94.4%.
On Human GLP-1R, `CC(=O)c1ccc(COc2cccc(C3CCN(Cc4nc5ccc(C(=O)O)cc5n4C[C@@H]4CCO4)CC3)n2)nc1` [Compound 9, (S)-2-((4-(6-((5-acetylpyridin-2-yl)methoxy)pyridin-2-yl)piperidin-1-yl)methyl)-1-(oxetan-2-ylmethyl)-1H-benzo[d]imidazole-6-carboxylic acid] returned an EC50 of 27 nM and an Emax of 83.4%.

Values taken from patent publication US12668587B2, “Benzimidazolone GLP-1 receptor agonist and use thereof” (HANGZHOU ZHONGMEIHUADONG PHARMACEUTICAL CO., LTD., priority 2020, dated 2026).
